SMILES strings stand for the structures. “Also recorded” adds a separate entry of the source.

Consider 2 compounds from patent publication US20060211703A1, “Substituted alkyl-pyridazinones for the treatment of memory and learning malfunctions” (priority 2003, published 2006).

For experiment [1] the following is noted: known anxiolytic compounds, comparison statement; cited from earlier work.
The subject of experiment [2] is Male Wistar rats. Put plainly: step through-type passive avoidance learning test. The conditions noted are these: 30 min before test, FIG. 1. The format is in vivo, rat. Here is the method: Male Wistar rats weighing 200-220 g were used. The animals were obtained from Charles River Co. They were kept in a room with normal 12-12 h light dark cycle (light on: 06:00) at relative humidity of 60±10%.
The experiment was performed in a five-channel “step through”-type passive avoidance learning apparatus. The equipment consisted of to adjacent Plexi-glass box of 20×20×16 cm. One of them was made of regular transparent Plexi-glass and the other one was made of black, non-transparent Plexi-glass. The boxes were connected with a 7.5×8 cm passageway, equipped with a computer-controlled guillotine-door. The passage of the rats through the door was detected by infrared photocells arranged in two parallel lines in the opening of the passageway. The door was automatically closed when the animals passed through. The dark compartment was equipped with stainless steel grid floor through which electric foot shocks could have been delivered to the animals. […]
The individually numbered animals were placed into the light compartment of the equipment. […] Step through latency was automatically determined. […]
After 24 h the animals were placed again in the light compartment of the test apparatus and step-through latency was measured as described at Acquisition day, except that no foot shock was applied to the animals in any group on the second day. […]

In the case of `CN1C(=O)CN=C(c2ccccc2)c2cc(Cl)ccc21` [diazepam], the effect on memory entry in experiment [1] is given as “deleterious”.
Regarding `O=c1cc(NCCN2CCN(c3cccc4c3OCCO4)CC2)cn[nH]1` [compound A, 5-[2-[4-(2,3-dihydro-benzo[1,4]dioxine-5-yl)-piperazine-1-yl]-ethylamine]-2H-pyridazine-3-one], the “step-through latency into the dark compartment (effect on acquisition / learning)” value in experiment [2] (1 mg/kg ip. at Day 1 (Acquisition), latency measured at Day 2, vs shocked vehicle control) is recorded as “significantly increased; also recorded: further increased”. The “step-through latency into the dark compartment (effect on recall / long term memory)” value in experiment [2] (1 mg/kg ip. at Day 2 (Retention), vs shocked vehicle control) was “significantly increased”.
